# Patent US20080014278A1, “METAL-CONTAINING FORMULATIONS AND METHODS OF USE” (priority 2006, published 2008)
# Assays:
# [1] = test system: Escherichia coli; experiment: MIC assay (microdilution); format: cell-based
# [2] = test system: Enterobacter cloacae; experiment: MIC assay (microdilution); format: cell-based; conditions: Ent. cloacae
# [3] = test system: Pseudomonas aeruginosa; experiment: MIC assay (microdilution); format: cell-based
# [4] = test system: Mycobacterium tuberculosis H37Ra; format: cell-based
# [5] = test system: Staphylococcus aureus; experiment: MIC assay (microdilution); format: cell-based; conditions: lactate solutions, nanocrystalline silver: range for 12 samples
# [6] = test system: Streptococcus pyogenes; experiment: MIC assay (microdilution); format: cell-based; conditions: lactate solutions, nanocrystalline silver: range for 12 samples
# [7] = test system: Streptococcus pneumoniae; experiment: MIC assay (microdilution); format: cell-based; conditions: lactate solutions, nanocrystalline silver: range for 12 samples
# [8] = test system: Staphylococcus epidermidis; experiment: MIC assay (microdilution); format: cell-based; conditions: lactate solutions; S. epiderm (ATCC); nanocrystalline silver: range for 12 samples
# [9] = test system: DNBS-induced colitis; experiment: DNBS-induced colitis in rat, macroscopic observations (body weight, total IBD score); format: in vivo, Sprague-Dawley rats; conditions: for total IBD score: vs placebo
# From the text: Animals: Male Sprague-Dawley rats, weighing approximately 250-300 gm were purchased from Charles River Laboratories (Raleigh, N.C.). The animals were housed under standard conditions with free access to food and water. They were acclimatized for 2-3 days before commencing the experiments. The study protocol was approved by the Institutional Animal Care and Use Committees (IACUC).
# Induction of ulcerative colitis: Colitis was produced according to published methods. Animals were anesthetized by intraperitoneal injection of 75 mg/kg of ketamine plus 5 mg/kg of xylazine. A single intracolonic injection of 120 mg/ml of dinitrobenzenesulfonic acid (DNBS) (Sigma Chemicals, St. Louis, Mo.) in 250 micro liter of 50% ethanol was administered through a Tom Cat catheter (Kendall Sovereign, Mansfield, Mass.) with a closed-end tip, connected to a 1 ml syringe and placed 7 cm proximal to the anus. Lubricant was applied to the tip of the catheter before injection, to protect from mucosal injury. After instillation of DNBS, 0.5 ml of air was insufflated and the catheter was removed.
# Sulfasalazine (Sigma Chemicals, St Louis, Mo.), at a concentration of 120 mg/ml for intracolonic treatment and 30 mg/ml for oral treatment was used as the reference drug in all the experiments. Sulfasalazine was first dissolved in 0.1M NaOH at a concentration about 30-fold higher than the required final concentration, and then suspended in 1.5% PVA for oral dosing and 5.7% PVA for intracolonic dosing.
# One group was not treated and served as no treatment group. Treatment began one day after administration of DNBS.
# Macroscopic Observations: Body weight was recorded daily and the animals were examined for their physical appearance. After five days of treatment, animals were sacrificed. The colon was excised between the ileocecal junction and rectum, and opened longitudinally. After scoring of the consistency of the stool the colon was rinsed in normal saline, examined and thickness of the colonic wall and number and size of ulcers were scored. Stool consistency was graded on a scale of 0-3: 0=normal stool, well formed pellets rigid as normal; 1=loose stool, formed pellet with moisture, soft stool keeping in stool shape; 2=loose stool, stools that have abnormal form with much moisture, softer shapeless stool; 3=watery or bloody diarrhea.
# Thickness of colonic wall was graded on a scale of 0-4: 0=normal, no thickness; 1=mild thickness in lower portion of the colon; 2=moderate thickness in localized area; 3=moderate thickness extending to the central portion of the colon; 4=severe thickness in the whole colon. Colonic ulceration was graded on a scale of 0-10: 0=no ulcers; 1=one small ulcer less than 2-3 mm; 2=one large ulcer more than 2-3 mm; 3=two large ulcerations more than 2-3 mm in diameter; 4=two or more sites of ulcerations extending 1 cm along the length; 5-10=when an area of ulceration extended more than 1 cm along the length of the colon, the score increases by 1 for each additional cm of involvement. The total IBD score, obtained by the sum of the scores of colonic ulcer, colon thickness and stool consistency for each animal, was calculated for each treatment group.
# Statistical Analysis: The results are expressed as the mean ±SE. The statistical significance in the mean total IBD score, histopathological inflammation score, and the immunohistochemical staining of cytokines or MMP-9 was determined using Tukey-Kramer's multiple comparison tests following one-way analysis of variance (ANOVA). The data were calculated with the aid of Instat Graph Pad Software. Differences with a P value less than 0.05 were considered significant.
# Methods: Colitis was induced in rats using DNBS as described in Example 25. Animals were treated intracolonically (250 μl of the test reagents) once a day for five days. […] Methods: Colitis was induced in rats using DNBS as described in Example 25. Animals were treated intracolonically (250 μl of the test reagents) once a day for five days.
# [10] = test system: DNBS-induced colitis; experiment: DNBS-induced colitis in rat, colon histopathology; format: in vivo, Sprague-Dawley rats
# Protocol: Histopathology: A piece of colonic tissue at 2-4 cm proximal to the anus was excised and fixed in 10% formalin and the sections were stained with hematoxylin and eosin. The remaining length of the colonic tissues was stored at −80° C. for subsequent biochemical assays. The histology slides were examined by a veterinary pathologist who was blinded to the treatment groups. The extent of microscopic mucosal damage of the colon was scored on scale of 0-5 as described with slight modification: 0=normal histological appearance; 1=histological damage limited to surface epithelium, mild infiltration of the submucosa; 2=focal ulceration and cell disruption limited to mucosa, abnormal appearance of colonic wall, mild infiltration of inflammatory cells; 3=focal, transmural inflammation and ulceration, with mild to moderate infiltration of inflammatory cells; 4=Extensive transmural ulceration and inflammation bordered by areas of normal mucosa, moderate infiltration of inflammatory cells; 5=extensive transmural ulceration and inflammation involving entire section from epithelium to serosa, severe infiltration of inflammatory cells.
# Statistical Analysis: The results are expressed as the mean ±SE. […] The data were calculated with the aid of Instat Graph Pad Software. […]
# [11] = test system: MMP-9; experiment: Immunohistochemistry of colonic tissue; format: in vivo, rat; conditions: vs placebo and no treatment
# Protocol: (§1) Immunohistochemistry: A Universal Streptavidin/Biotin detection system (Thermo Shandon, Pittsburgh, Pa.) was used for immunohistochemical staining of formalin fixed, paraffin embedded biopsies of the colon. After dewaxing, and hydration, sections were treated with protein blocking agent to reduce non-specific binding of antibodies. The tissues were then incubated with rabbit anti-rat TNF-α, or mouse anti-rat IL-12 p70 antibodies (Biosource International, Inc, Camarillo, Calif.); rabbit anti-rat IL-1β (Serotec, Raleigh, N.C.) or rabbit anti-rat MMP-9 antibody (Chemicon International, Telecuma, Calif.) in 1% bovine serum albumin in phosphate buffered saline. Incubations with secondary antibodies, streptavidin/biotin, and chromogenic detection of peroxidase were performed according to the manufacturer's protocol. Sections were counterstained, dehydrated, mounted and examined. The intensity of the immuno-peroxidase staining was graded as described previously. Expression of cytokines was graded as: 0, no staining in the section; 1, less than 25% of the section; 2, 25-50% of the section; 3, 50-75% of the section; 4, >75% of the section with significant staining.
# [12] = test system: IL-1β; experiment: Immunohistochemistry of colonic tissue; format: in vivo, rat; conditions: five days oral treatment
# Protocol: as §1
# [13] = test system: TNF-α; experiment: Immunohistochemistry of colonic tissue; format: in vivo, rat; conditions: five days oral treatment
# Protocol: as §1
compound,measurement,setting,value
"OO [Sample H2O2, hydrogen peroxide]",MIC,"[1]; E. coli, SOD/catalase +",>500 µg/mL
same,MIC,"[1]; E. coli, SOD/catalase −",31 µg/mL
same,MIC,[2]; SOD/catalase +,>500 µg/mL
same,MIC,[2]; SOD/catalase −,63 µg/mL
Benzalkonium chloride [BAC],MIC,[3]; P. aeruginosa isolate NP220 (BAC-sensitive),63 µg/mL
same,MIC,[3]; P. aeruginosa isolate NP221 (BAC-resistant),4000 µg/mL
same,MIC,[3]; P. aeruginosa isolate NP222 (BAC-sensitive),63 µg/mL
silver oxide [Ag2O],MIC,[4],2.5 μg/ml silver
same,MIC,[5]; S. aureus (ATCC),3 µg/mL
same,MIC,[5]; S. aureus (clin.),6 µg/mL
same,MIC,"[1]; lactate solutions, E. coli (ATCC), nanocrystalline silver: range for 12 samples",0.8 µg/mL
same,MIC,"[3]; lactate solutions, P. aerug (ATCC), nanocrystalline silver: range for 12 samples",0.8 µg/mL
same,MIC,"[3]; lactate solutions, P. aerug. (clin.), nanocrystalline silver: range for 12 samples",2 µg/mL
same,MIC,[6]; S. pyog (clin. 303),2 µg/mL
same,MIC,[6]; S. pyog (clin. 304),3 µg/mL
same,MIC,[7]; S. pneumo (clin 314),3 µg/mL
same,MIC,[7]; S. pneumo (clin 315),2 µg/mL
same,MIC,[8],2 µg/mL
same,total IBD score,"[9]; Example 27, 0.25% homogenized, intracolonic, five days",unable to show significant reduction of total IBD score
same,total IBD score,"[9]; Example 27, 0.5% homogenized, intracolonic, five days",unable to show significant reduction of total IBD score
same,total IBD score,"[9]; Example 27, 0.5% sonicated nanodispersion, 250 μl intracolonically once a day for five days",significantly reduced the total IBD score
same,total IBD score,"[9]; Example 28, 0.05% nanodispersion, intracolonic, five days",but not 0.15% and 0.05%
same,total IBD score,"[9]; Example 28, 0.15% nanodispersion, intracolonic, five days",but not 0.15% and 0.05%
same,total IBD score,"[9]; Example 28, 0.5% sonicated nanodispersion, 250 μl intracolonically once a day for five days",significantly reduced the total IBD score
same,total IBD score,"[9]; Example 28, 1.5% nanodispersion, intracolonic, five days",significantly reduced the total IBD score
"O=C(O)c1cc(/N=N/c2ccc(S(=O)(=O)Nc3ccccn3)cc2)ccc1O [sulfasalazine, salicylazosulfapyridine]",histopathological inflammation score,"[10]; oral 100 mg/kg, vs placebo and untreated",significantly reduced the histopathological inflammation
same,colon sections (hematoxylin and eosin),"[10]; oral, 40 mg/kg nanocrystalline silver, 100 mg/kg sulfasalazine",healed mucosa and few residual inflammatory infiltrate
same,expression of MMP-9 (immunohistochemical staining),[11],significantly reduced the expression of MMP-9
same,expression of IL-1β (immunohistochemical staining),[12],significantly reduced the expression
same,expression of TNF-α (immunohistochemical staining),[13],significantly reduced the expression
same,body weight,"[9]; DNBS colitis rats, intracolonic or oral treatment",started gaining body weight after one day of treatment
same,total IBD score,"[9]; Example 27, 100 mg/kg",significantly reduced total IBD score
same,total IBD score,"[9]; Example 28, 100 mg/kg",significantly reduced total IBD score
